test: odor evaluation of filter papers treated with active agent and artificial perspiration mixture by six trained testers; conditions: 0.5-wt % solution in ethanol on filter paper; 24 hours at room temperature; scale 0 (no difference from ethanol control) to 4 (very much better odor reduction)
Source text: An artificial perspiration mixture was produced by mixing different short-chain fatty acids at specific quantitative ratios (C6, C8, C9, C10, isovaleric acid). respective 0.5-wt % solutions in ethanol were produced of each of the active agents and active-agent combinations to be tested, applied in a standardized quantity onto filter paper, and dried for one hour at room temperature. The artificial perspiration mixture was then applied in a standardized quantity, and the filters were stored for 24 hours at room temperature in a closed container. An odor evaluation of the samples was carried out by six trained testers using a scale from 0 (no difference from ethanol control) to 4 (very much better odor reduction as compared with ethanol control).

Q: For CC12CCC(CC1)C(C)(C)O2 [eucalyptol, 1,3,3-trimethyl-2-oxabicyclo[2.2.2]octane], which “reduction in perspiration odor as compared with the ethanol control” value (from here on “reduction in perspiration odor”) is on record?
A: Its value is 0.92 units.

Q: Which “reduction in perspiration odor” value does the source give for C/C=C\c1ccc(OC)cc1 [anethole] here?
A: Its value is 2.42 units.

Q: For CC(C)[C@@H]1CC[C@@H](C)C[C@H]1O (racemic) [DL-Menthol, DL-menthol], which “reduction in perspiration odor” value is on record?
A: The value was 1.67 units.
